Measured values as given in patent publication US9278922B2 (ABBVIE INC., priority 2009, dated 2016).

Test system: HCV 1b-Con-1 replicon
Assay: HCV 1b-Con-1 replicon assay (luciferase reporter gene, HuH-7 cells)
Assay type: cell-based, Hepatitis C virus (HCV) genotype 1b-Con1
Settings: Hepatitis C virus, Huh-7, luciferase reporter gene activity in the replicon, in the presence of 5% FBS

Row | Structure (SMILES) | EC50
1 | COC(=O)N[C@H](C(=O)N(C)[C@@H](C)C(=O)Nc1ccc(CN(Cc2ccc(NC(=O)[C@H](C)N(C)C(=O)[C@@H](NC(=O)OC)C(C)(C)C)cc2)c2ccccc2)cc1)C(C)(C)C [Example 47, dimethyl[(phenylimino)bis{methanediylbenzene-4,1-diylimino[(2S)-1-oxopropane-1,2-diyl](methylimino)[(2S)-3,3-dimethyl-1-oxobutane-1,2-diyl]}]biscarbamate] | 1 to 10 nM
2 | CCN(CC)[C@@H](C(=O)N1CCC[C@H]1C(=O)Nc1ccc(CN(Cc2ccc(NC(=O)[C@@H]3CCCN3C(=O)[C@@H](NC(=O)OC)C(C)(C)C)cc2)c2ccccc2)cc1)c1ccccc1 [Example 12, Methyl (S)-1-((S)-2-(4-(((4-((S)-1-((R)-2-(diethylamino)-2-phenylacetyl)pyrrolidine-2-carboxamido)benzyl)(phenyl)amino)methyl)phenylcarbamoyl)pyrrolidin-1-yl)-3,3-dimethyl-1-oxobutan-2-ylcarbamate] | < 1 nM
3 | COC(=O)N[C@H](C(=O)N1CCC[C@H]1C(=O)Nc1cccc(CN(Cc2cccc(NC(=O)[C@@H]3CCCN3C(=O)[C@@H](NC(=O)OC)C(C)C)c2)c2ccc(F)cc2)c1)C(C)C [Example 146, dimethyl ([(4-fluorophenyl)imino]bis{methanediylbenzene-3,1-diylcarbamoyl(2S)pyrrolidine-2,1-diyl[(2S)-3-methyl-1-oxobutane-1,2-diyl]})biscarbamate] | 1 to 10 nM
4 | O=C(Nc1ccc(CN(Cc2ccc(NC(=O)[C@@H]3CCCN3C(=O)C(c3ccccc3)N3CC[C@@H](F)C3)cc2)c2ccc(F)cc2)cc1)[C@@H]1CCCN1C(=O)C(c1ccccc1)N1CC[C@@H](F)C1 (stereo partly drawn) [Example 116, (2S,2′S)-N,N′-{[(4-fluorophenyl)imino]bis(methanediylbenzene-4,1-diyl)}bis(1-{[(3R)-3-fluoropyrrolidin-1-yl](phenyl)acetyl}pyrrolidine-2-carboxamide)] | < 1 nM
5 | O=C(Nc1ccc(CN(Cc2ccc(NC(=O)[C@@H]3CCCN3C(=O)OCc3ccccc3)cc2)c2ccccc2)cc1)C1CCCN1C(=O)OCc1ccccc1 (stereo partly drawn) [Example 4, (2S,2′S)-benzyl 2,2′-(4,4′-(phenylazanediyl)bis(methylene)bis(4,1-phenylene)bis(azanediyl))bis(oxomethylene)dipyrrolidine-1-carboxylate] | 10 to 100 nM
6 | COC(=O)N[C@H](C(=O)N1CCC[C@H]1C(=O)Nc1ccc(CN(Cc2ccc(NC(=O)[C@@H]3CCCN3C(=O)[C@@H](NC(=O)OC)C3CCCC3)cc2)c2ccc(F)cc2)cc1)C1CCCC1 [Example 133, dimethyl ([(4-fluorophenyl)imino]bis{methanediylbenzene-4,1-diylcarbamoyl(2S)pyrrolidine-2,1-diyl[(1S)-1-cyclopentyl-2-oxoethane-2,1-diyl]})biscarbamate] | < 1 nM
7 | CC(C)(C)[C@@H](C(=O)N1CCC[C@H]1C(=O)Nc1ccc(CN(Cc2ccc(NC(=O)[C@@H]3CCCN3C(=O)[C@@H](N3CCNC3=O)C(C)(C)C)cc2)c2ccccc2)cc1)N1CCNC1=O [Example 31, (2S,2′S)-N,N′-[(phenylimino)bis(methanediylbenzene-4,1-diyl)]bis{1-[(2S)-3,3-dimethyl-2-(2-oxoimidazolidin-1-yl)butanoyl]pyrrolidine-2-carboxamide}] | < 1 nM
8 | C=CC[C@H]1CC[C@@H](C(=O)Nc2ccc(CN(Cc3ccc(NC(=O)[C@@H]4CC[C@H](CC=C)N4C(=O)[C@@H](NC(=O)OC)C(C)(C)C)cc3)c3ccccc3)cc2)N1C(=O)[C@@H](NC(=O)OC)C(C)(C)C [Example 64] | < 1 nM
9 | O=C(Nc1ccc(CN(Cc2ccc(NC(=O)[C@@H]3C[C@@H]4CCC[C@@H]4N3C(=O)[C@@H](c3ccccc3)N3CCCCC3)cc2)c2ccc(F)cc2)cc1)[C@@H]1C[C@@H]2CCC[C@@H]2N1C(=O)[C@@H](c1ccccc1)N1CCCCC1 [Example 124, (2S,3aS,6aS,2′S,3a′S,6a′S)-N,N′-{[(4-fluorophenyl)imino]bis(methanediylbenzene-4,1-diyl)}bis{1-[(2R)-2-phenyl-2-piperidin-1-ylacetyl]octahydrocyclopenta[b]pyrrole-2-carboxamide}] | < 1 nM
10 | COC(=O)N[C@H](C(=O)N1CCC[C@H]1C(=O)Nc1ccc(CN(Cc2ccc(NC(=O)[C@@H]3CCCN3C(=O)[C@@H](c3ccccc3)N(C)C)cc2)c2ccccc2)cc1)C(C)(C)C [Example 10, Methyl (S)-1-((S)-2-(4-(((4-((S)-1-((R)-2-(dimethylamino)-2-phenylacetyl)pyrrolidine-2-carboxamido)benzyl)(phenyl)amino)methyl)phenylcarbamoyl)pyrrolidin-1-yl)-3,3-dimethyl-1-oxobutan-2-ylcarbamate] | < 1 nM
11 | CCN(C(C)C)[C@@H](C(=O)N1CCC[C@H]1C(=O)Nc1ccc(CN(Cc2ccc(NC(=O)[C@@H]3CCCN3C(=O)[C@@H](c3ccccc3)N(CC)C(C)C)cc2)c2ccc(F)cc2)cc1)c1ccccc1 [Example 132, (2S,2′S)-N,N′-{[(4-fluorophenyl)imino]bis(methanediylbenzene-4,1-diyl)}bis(1-{(2R)-2-[ethyl(1-methylethyl)amino]-2-phenylacetyl}pyrrolidine-2-carboxamide)] | < 1 nM
12 | COC(=O)N[C@H](C(=O)N1CCC[C@H]1C(=O)Nc1ccc(CN(Cc2ccc(NC(=O)[C@@H]3CCCN3C(=O)[C@H](NC(=O)OC)c3ccccc3)cc2)c2ccccc2)cc1)[C@H]1CCOC1 [Example 72] | < 1 nM
13 | COC(=O)N[C@H](C(=O)N1CCC[C@H]1C(=O)Nc1ccc(CN(Cc2ccc(NC(=O)[C@@H]3CCCN3C(=O)[C@@H](NC(=O)OC)[C@H](C)O)cc2)c2ccccc2)cc1)[C@H](C)O [Example 49, dimethyl [(phenylimino)bis{methanediylbenzene-4,1-diylcarbamoyl(2S)pyrrolidine-2,1-diyl[(2S,3S)-3-hydroxy-1-oxobutane-1,2-diyl]}]biscarbamate] | 1 to 10 nM
14 | COC(=O)N[C@@H](C(=O)N1CCC[C@H]1C(=O)Nc1ccc(CN(Cc2ccc(NC(=O)[C@@H]3CCCN3C(=O)[C@@H]3CCCO3)cc2)c2ccccc2)cc1)c1ccccc1 [Example 76, methyl {(1R)-2-oxo-1-phenyl-2-[(2S)-2-({4-[(phenyl{4-[({(2S)-1-[(2S)-tetrahydrofuran-2-ylcarbonyl]pyrrolidin-2-yl}carbonyl)amino]benzyl}amino)methyl]phenyl}carbamoyl)pyrrolidin-1-yl]ethyl}carbamate] | < 1 nM
15 | COC(=O)N[C@H](C(=O)N1CCC[C@H]1C(=O)Nc1ccc(CN(Cc2ccc(NC(=O)[C@@H]3CCCN3C(=O)[C@@H](NC(=O)OC)C(C)C)cc2)c2ccccc2)cc1)C(C)C [Example 1] | < 1 nM
16 | COC(=O)N[C@H](C(=O)N1CCC[C@H]1C(=O)Nc1ccc(CN(Cc2ccc(NC(=O)[C@@H]3CCCN3C(=O)[C@@H](NC(=O)OC)C3CCCCC3)cc2)c2ccc(F)cc2)cc1)C1CCCCC1 [Example 104, dimethyl ([(4-fluorophenyl)imino]bis{methanediylbenzene-4,1-diylcarbamoyl(25)pyrrolidine-2,1-diyl[(1S)-1-cyclohexyl-2-oxoethane-2,1-diyl]})biscarbamate] | < 1 nM
17 | CCC(O)(CC)C(C(=O)N1CCC[C@H]1C(=O)Nc1ccc(CN(Cc2ccc(NC(=O)[C@@H]3CCCN3C(=O)C(c3ccccc3)C(O)(CC)CC)cc2)c2ccc(F)cc2)cc1)c1ccccc1 (stereo partly drawn) [Example 105, (2S,2′S)-N,N′-{[(4-fluorophenyl)imino]bis(methanediylbenzene-4,1-diyl)}bis[1-(3-ethyl-3-hydroxy-2-phenylpentanoyl)pyrrolidine-2-carboxamide]] | < 1 nM
18 | COC(=O)N[C@H](C(=O)N1CCC[C@H]1C(=O)Nc1ccc(CN(Cc2ccc(NC(=O)[C@@H]3CCCN3C(=O)[C@@H](NC(=O)OC)C(C)(C)C)cc2)c2nccs2)cc1)C(C)(C)C [Example 19] | 10 to 100 nM
19 | O=C([C@@H](c1ccccc1)N1CCOCC1)N1CCC[C@H]1c1nc2cc(CN(Cc3ccc4[nH]c([C@@H]5CCCN5C(=O)[C@@H](c5ccccc5)N5CCOCC5)nc4c3)c3ccccc3)ccc2[nH]1 [Example 67, N,N-bis[(2-{(2S)-1-[(2R)-2-morpholin-4-yl-2-phenylacetyl]pyrrolidin-2-yl}-1H-benzimidazol-5-yl)methyl]aniline] | < 1 nM
20 | COC(=O)N[C@H](C(=O)N1CCC[C@H]1c1nc2cc(CN(Cc3ccc4oc([C@@H]5CCCN5C(=O)[C@@H](NC(=O)OC)C(C)C)nc4c3)c3ccccc3)ccc2o1)C(C)C [Example 148, methyl [(1S)-1-{[(2S)-2-(5-{[({2-[(2S)-1-{(2S)-2-[(methoxycarbonyl)amino]-3-methylbutanoyl}pyrrolidin-2-yl]-1,3-benzoxazol-5-yl}methyl)(phenyl)amino]methyl}-1,3-benzoxazol-2-yl)pyrrolidin-1-yl]carbonyl}-2-methylpropyl]carbamate] | 100 to 250 nM
21 | COC(=O)N[C@H](C(=O)N1CCC[C@H]1C(=O)Nc1ccc(CN(Cc2ccc(NC(=O)[C@@H]3CCCN3C(=O)[C@@H](NC(=O)OC)C(C)(C)C)cc2)C2CCCC2)cc1)C(C)(C)C [Example 29, dimethyl[(cyclopentylimino)bis{methanediylbenzene-4,1-diylcarbamoyl(2S)pyrrolidine-2,1-diyl[(2S)-3,3-dimethyl-1-oxobutane-1,2-diyl]}]biscarbamate] | 100 to 250 nM
22 | COC(=O)N[C@H](C(=O)N1CC[C@H]1C(=O)Nc1ccc(CN(Cc2ccc(NC(=O)[C@@H]3CCN3C(=O)[C@@H](NC(=O)OC)C(C)(C)C)cc2)c2ccc(F)cc2)cc1)C(C)(C)C [Example 100, methyl [(1S)-1-{[(2S)-2-{[4-({(4-fluorophenyl)[4-({[(2S)-1-{(2S)-2-[(methoxycarbonyl)amino]-3,3-dimethylbutanoyl}azetidin-2-yl]carbonyl}amino)benzyl]amino}methyl)phenyl]carbamoyl}azetidin-1-yl]carbonyl}-2,2-dimethylpropyl]carbamate] | 1 to 10 nM
23 | CCN[C@@H](C(=O)N1CCC[C@H]1C(=O)Nc1ccc(CN(Cc2ccc(NC(=O)[C@@H]3CCCN3C(=O)[C@H](NCC)c3ccccc3)cc2)c2ccc(F)cc2)cc1)c1ccccc1 [Example 131, (2S,2′S)-N,N′-{[(4-fluorophenyl)imino]bis(methanediylbenzene-4,1-diyl)}bis{1-[(2R)-2-(ethylamino)-2-phenylacetyl]pyrrolidine-2-carboxamide}] | < 1 nM
